Data published in patent US9126945B2, “N-(3-carbamoylphenly)-1H-pyrazole-5-carboxamide derivatives and the use thereof for controlling animal pests” (BAYER INTELLECTUAL PROPERTY GMBH, priority 2011, dated 2015).

Assay: log P by HPLC, EEC Directive 79/831 Annex V.A8, method a)
Format: physicochemical
Settings: cell prints no method mark; Ex. 40 value equals the log P given under method a)
Method: (§1) ^a) Note regarding the determination of the log P values and mass detection The determination of the given log P values was carried out in accordance with EEC Directive 79/831 Annex V.A8 by HPLC (High Performance Liquid Chromatography) on a reversed-phase column (C18). Agilent 1100 LC system; 50*4.6 Zorbax Eclipse Plus C18 1.8 micron; mobile phase A: acetonitrile (0.1% formic acid); mobile phase B: water (0.09% formic acid); linear gradient from 10% acetonitrile to 95% acetonitrile in 4.25 min, then 95% acetonitrile for a further 1.25 min; oven temperature 55° C.; flow rate: 2.0 ml/min Mass detection is via an Agilend MSD system.
as §1, with “mass detection:” for “mass detection”, “2.0 ml/min.” for “2.0 ml/min”

| Compound | logP |
| --- | --- |
| CC(C)OC(=O)N(C(=O)c1c(C(F)(F)F)c(C(F)(F)C(F)(F)F)nn1C)c1ccc(Cl)c(C(=O)NC2(C#N)CC2)c1 [Example 63] | 4.19 |
| C#CCn1nc(C(F)(F)C(F)(F)F)c(C(F)(F)F)c1C(=O)Nc1ccc(Cl)c(C(=O)NC2(C#N)CC2)c1 [Example 57] | 3.58 |
| COC(=O)N(C(=O)c1c(C(F)(F)F)c(C(F)(F)C(F)(F)F)nn1C)c1ccc(Cl)c(C(=O)NC2(C#N)CC2)c1 [Example 19] | 3.69 |
| C#CCN(C(=O)c1c(C(F)(F)F)c(C(F)(F)C(F)(F)F)nn1C)c1ccc(Cl)c(C(=O)NC2(C#N)CC2)c1 [Example 26] | 3.41 |
| Cn1nc(C(F)(F)C(F)(F)F)c(S(C)(=O)=O)c1C(=O)Nc1ccc(Cl)c(C(=O)NC2(C#N)CC2)c1 [Example 49] | 2.47 |
| Cn1nc(C(F)(F)F)c(C(F)(F)F)c1C(=O)Nc1cc(Cl)c(Br)c(C(=O)NC2(C#N)CC2)c1 [Example 12] | 3.27 |
| N#CC1(NC(=O)c2cc(NC(=O)c3c(C(F)(F)F)c(C(F)(F)C(F)(F)F)nn3CC(F)(F)F)ccc2Cl)CC1 [Example 64] | 3.60 |
| CCn1nc(C(F)(F)C(F)(F)F)c(C(F)(F)F)c1C(=O)N(C)c1ccc(Cl)c(C(=O)NC2(C#N)CC2)c1 [Example 38] | 3.57 |
| Cn1nc(C(F)(F)C(F)(F)F)c(C(F)(F)F)c1C(=O)Nc1ccc(F)c(C(=O)NC2(C#N)CC2)c1 [Example 27] | 3.21 |
| CSc1c(C(F)(F)C(F)(F)F)nn(C)c1C(=O)Nc1ccc(Cl)c(C(=O)NC2(C#N)CC2)c1 [Example 42] | 3.43 |
| Cn1nc(C2(F)CC2)c(Cl)c1C(=O)Nc1ccc(Cl)c(C(=O)NC2(C#N)CC2)c1 [Example 17] | 2.50 |
| CCN(C(=O)c1cc(NC(=O)c2c(C(F)(F)F)c(C(F)(F)C(F)(F)F)nn2C)ccc1Cl)C1(C#N)CC1 [Example 61] | 3.86 |
| Cn1nc(C(F)(F)F)c(C(F)(F)F)c1C(=O)Nc1cc(Br)c(Br)c(C(=O)NC2(C#N)CC2)c1 [Example 11] | 3.30 |
| CC(C)C(=O)N(C(=O)c1c(C(F)(F)F)c(C(F)(F)C(F)(F)F)nn1C)c1ccc(Cl)c(C(=O)NC2(C#N)CC2)c1 [Example 29] | 4.38 |
| Cn1nc(C(F)(F)C(F)(F)F)c(C(F)(F)F)c1C(=O)N(Cc1ccccc1)c1ccc(Cl)c(C(=O)NC2(C#N)CC2)c1 [Example 31] | 3.97 |
| CCC(=O)N(C(=O)c1c(C(F)(F)F)c(C(F)(F)C(F)(F)F)nn1C)c1ccc(Cl)c(C(=O)NC2(C#N)CC2)c1 [Example 33] | 3.91 |
| Cn1nc(C(F)(F)C(F)(F)F)c(C(F)(F)F)c1C(=O)N(C(=O)C(C)(C)C)c1ccc(Cl)c(C(=O)NC2(C#N)CC2)c1 [Example 23] | 4.40 |
| CCCn1nc(C(F)(F)C(F)(F)F)c(C(F)(F)F)c1C(=O)Nc1ccc(F)c(C(=O)NC2(C#N)CC2)c1 [Example 36] | 3.74 |
| CCn1nc(C(F)(F)C(F)(F)F)c(C(F)(F)F)c1C(=O)Nc1ccc(F)c(C(=O)NC2(C#N)CC2)c1 [Example 37] | 3.44 |
| Cn1nc(C(F)(F)C(F)(F)F)c(C(F)(F)F)c1C(=O)Nc1cc(Cl)c(Br)c(C(=O)NC2(C#N)CC2)c1 [Example 16] | 3.73 |

| Compound | logP |
| --- | --- |
| Cn1nc(C(F)(F)C(F)(F)F)c(C(F)(F)F)c1C(=O)N(Cc1ccc(Cl)cc1)c1ccc(Cl)c(C(=O)NC2(C#N)CC2)c1 [Example 28] | 4.30 |
| CCN(C(=O)c1c(C(F)(F)F)c(C(F)(F)C(F)(F)F)nn1CC)c1ccc(Cl)c(C(=O)N(CC)C2(C#N)CC2)c1 [Example 52] | 4.26 |
| CCn1nc(C(F)(F)C(F)(F)F)c(C(F)(F)F)c1C(=O)N(C)c1ccc(F)c(C(=O)N(C)C2(C#N)CC2)c1 [Example 48] | 3.76 |
| CCCn1nc(C(F)(F)C(F)(F)F)c(C(F)(F)F)c1C(=O)N(C)c1ccc(F)c(C(=O)N(C)C2(C#N)CC2)c1 [Example 47] | 4.05 |
| CCC(=O)N(C(=O)c1cc(NC(=O)c2c(C(F)(F)F)c(C(F)(F)C(F)(F)F)nn2C)ccc1Cl)C1(C#N)CC1 [Example 15] | 4.17 |
| COC(=O)N(C(=O)c1c(C(F)(F)F)c(C(F)(F)C(F)(F)F)nn1C)c1ccc(Cl)c(C(=O)N(C(=O)OC)C2(C#N)CC2)c1 [Example 21] | 4.32 |
| CCCn1nc(C(F)(F)C(F)(F)F)c(C(F)(F)F)c1C(=O)Nc1ccc(Cl)c(C(=O)NC2(C#N)CC2)c1 [Example 35] | 3.87 |
| Cn1nc(C(F)(F)C(F)(F)F)c([S+](C)[O-])c1C(=O)Nc1ccc(Cl)c(C(=O)NC2(C#N)CC2)c1 (centres unmarked) [Example 45] | 2.91 |
| Cn1nc(C(F)(F)C(F)(F)F)c(C(F)(F)F)c1C(=O)N(Cc1cccnc1)c1ccc(Cl)c(C(=O)NC2(C#N)CC2)c1 [Example 54] | 2.85 |
| Cn1nc(C(F)(F)C(F)(F)F)c(C(F)(F)F)c1C(=O)N(Cc1ccncc1)c1ccc(Cl)c(C(=O)NC2(C#N)CC2)c1 [Example 56] | 2.52 |
| C=C(C)CN(C(=O)c1c(C(F)(F)F)c(C(F)(F)C(F)(F)F)nn1C)c1ccc(Cl)c(C(=O)NC2(C#N)CC2)c1 [Example 55] | 3.78 |
| CCn1nc(C(F)(F)C(F)(F)F)c(C(F)(F)F)c1C(=O)Nc1ccc(Cl)c(C(=O)NC2(C#N)CC2)c1 [Example 34] | 3.53 |
| CCN(C(=O)c1c(C(F)(F)F)c(C(F)(F)C(F)(F)F)nn1CC)c1ccc(Cl)c(C(=O)NC2(C#N)CC2)c1 [Example 43] | 3.68 |
| CCOC(=O)N(C(=O)c1c(C(F)(F)F)c(C(F)(F)C(F)(F)F)nn1C)c1ccc(Cl)c(C(=O)N(C(=O)OCC)C2(C#N)CC2)c1 [Example 22] | 4.80 |
| C=CCn1nc(C(F)(F)C(F)(F)F)c(C(F)(F)F)c1C(=O)Nc1ccc(Cl)c(C(=O)NC2(C#N)CC2)c1 [Example 58] | 3.65 |
| CC(=O)N(C(=O)c1c(C(F)(F)F)c(C(F)(F)C(F)(F)F)nn1C)c1ccc(Cl)c(C(=O)N(C(C)=O)C2(C#N)CC2)c1 [Example 18] | 4.04 |
| CCCn1nc(C(F)(F)C(F)(F)F)c(C(F)(F)F)c1C(=O)N(C)c1ccc(Cl)c(C(=O)N(C)C2(C#N)CC2)c1 [Example 46] | 4.26 |
| CC#CCN(C(=O)c1c(C(F)(F)F)c(C(F)(F)C(F)(F)F)nn1C)c1ccc(Cl)c(C(=O)NC2(C#N)CC2)c1 [Example 30] | 3.60 |
| Cc1cc(NC(=O)c2c(C(F)(F)F)c(C(F)(F)C(F)(F)F)nn2C)cc(C(=O)NC2(C#N)CC2)c1Cl [Example 24] | 3.51 |
| CCn1nc(C(F)(F)C(F)(F)F)c(C(F)(F)F)c1C(=O)N(C)c1ccc(Cl)c(C(=O)N(C)C2(C#N)CC2)c1 [Example 41] | 3.85 |

Same assay, conditions: reversed-phase C18 HPLC column; HPLC-MS method a), reversed-phase C18, acetonitrile/water with formic acid

| chromatographic logP | Compound |
| --- | --- |
| 3.07 | Cn1nc(C2(F)CC2)c(Cl)c1C(=O)O [4-Chloro-3-(1-fluorocyclopropyl)-1-methyl-1H-pyrazole-5-carboxylic acid] |
| 3.52 | CCOC(=O)c1c(Cl)c(C2(Cl)CC2)nn1C [Ethyl 4-chloro-3-(1-chlorocyclopropyl)-1-methyl-1H-pyrazole-5-carboxylate] |
| 4.06 | CCCn1nc(C(F)(F)C(F)(F)F)c(C(F)(F)F)c1C(=O)N(CC)c1ccc(Cl)c(C(=O)NC2(C#N)CC2)c1 [Example 50, N-{4-Chloro-3-[(1-cyanocyclopropyl)carbamoyl]phenyl}-N-ethyl-3-(pentafluoroethyl)-1-propyl-4-(trifluoromethyl)-1H-pyrazole-5-carboxamide] |
| 0.82 | N#CC1(NC(=O)c2cc(N)ccc2Cl)CC1 [5-Amino-2-chloro-N-(1-cyanocyclopropyl)benzamide] |
| 3.07 | CCOC(=O)c1c(Cl)c(C2(F)CC2)nn1C [Ethyl 4-chloro-3-(1-fluorocyclopropyl)-1-methyl-1H-pyrazole-5-carboxylate] |
| 2.52 | COC(=O)c1c(N)c(C(F)(F)C(F)(F)F)nn1C [methyl 4-amino-1-methyl-3-(pentafluoroethyl)-1H-pyrazole-5-carboxylate] |
| 3.51 | COC(=O)c1c(SC)c(C(F)(F)C(F)(F)F)nn1C [methyl 1-methyl-4-(methylsulphanyl)-3-(pentafluoroethyl)-1H-pyrazole-5-carboxylate] |
| 1.52 | N#CC1(NC(=O)c2cc([N+](=O)[O-])ccc2Cl)CC1 [2-chloro-N-(1-cyanocyclopropyl)-5-nitrobenzamide] |
| 1.9 | Cn1nc(C2(Cl)CC2)c(Cl)c1C(=O)O [4-Chloro-3-(1-chlorocyclopropyl)-1-methyl-1H-pyrazole-5-carboxylic acid] |
| 3.18 | COC(=O)c1c([N+](=O)[O-])c(C(F)(F)C(F)(F)F)nn1C [methyl 1-methyl-4-nitro-3-(pentafluoroethyl)-1H-pyrazole-5-carboxylate] |
| 3.18 | Cn1nc(C(F)(F)C(F)(F)F)c(C(F)(F)F)c1C(=O)Nc1ccc(Cl)c(C(=O)O)c1 [2-Chloro-5-({[1-methyl-3-(pentafluoroethyl)-4-(trifluoromethyl)-1H-pyrazol-5-yl]carbonyl}amino)benzenecarboxylic acid] |

Same assay, conditions: reversed-phase HPLC column (C18); HPLC-MS, method note not marked

| chromatographic logP | Compound |
| --- | --- |
| 3.51 | CSc1c(C(F)(F)C(F)(F)F)nn(C)c1C(=O)O [1-Methyl-4-(methylsulphanyl)-3-(pentafluoroethyl)-1H-pyrazole-5-carboxylic acid] |

Same assay, conditions: reversed-phase HPLC column (C18); cell prints no method mark; Ex. 40 value equals the log P given under method a)

| chromatographic logP | Compound |
| --- | --- |
| 4.06 | CCCn1nc(C(F)(F)C(F)(F)F)c(C(F)(F)F)c1C(=O)N(CC)c1ccc(Cl)c(C(=O)NC2(C#N)CC2)c1 [Example 50, N-{4-Chloro-3-[(1-cyanocyclopropyl)carbamoyl]phenyl}-N-ethyl-3-(pentafluoroethyl)-1-propyl-4-(trifluoromethyl)-1H-pyrazole-5-carboxamide] |
